Measurements as given in patent US10568930B2, “Agents and methods of treatment” (Hexima Limited, priority 2014, dated 2020).
Read-outs that look alike come from different tables or passages of the source.

Key:
Candida albicans [1] = assay: Antifungal growth assay, defensin plus proteinase inhibitor; format: cell-based; set-up: key to Synergy: Io-Ee in % inhibition points; >60 high synergy, <15 none; conditions: for Expected inhibition: Ee, Limpel formula; for Synergy: Io-Ee
Method: (§1) Spores are isolated from sporulating fungus spp. growing on yeast extract peptone dextrose agar (Candida albicans, Cryptococcus gattii—1.5×10^6) or ½ strength Sabouraud dextrose agar (Trichophyton interdigitale, Microsporum fulvum—5×10^4). Spores are removed from the plates by the addition of ½ strength potato dextrose broth (PDB). Spore concentrations are measured using a haemocytometer.
(§2) Antifungal assays were conducted in 96 well microtitre plates. Wells were loaded with 10 μL of filter sterilized (0.22 μm syringe filter, Millipore) defensin (10× stock for each final concentration) or water, 10 μL, of filter sterilized (0.22 μm syringe filter, Millipore) proteinase inhibitor or chemical fungicide (10× stock for each final concentration) or water and 80 μL of 5×10^3 spores/mL in ½ strength PDB. The plates were incubated at 24° C. Fungal growth was assayed by measuring optical density at 595 nm (A595) using a microtitre plate reader (SpectraMax Pro M2; Molecular Devices. Growth was allowed to proceed until the optical density (OD) of the fungus in the absence of any test defensin reached an OD of 0.2. Each test was performed in duplicate.
(§3) Synergy is classified as the difference between the observed % fungal growth inhibition caused by the combination of a defensin and a proteinase inhibitor (or a defensin and a chemical fungicide) (Io value) and the expected % fungal growth inhibition of the defensin and the proteinase inhibitor (or the defensin and the chemical fungicide) based on the sum of the % fungal growth inhibition of the defensin and the proteinase inhibitor (or the defensin and the chemical fungicide) on their own (Ee value calculated according to the Limpel formula used by Richer et al. (1987) supra). The difference, Io-Ee, is the synergy value. A synergy value up to 15 means no significant synergy; 15-30 is a low level of synergy; 30-60 is a medium level of synergy; and >60 is a high level of synergy. Synergy calculations are presented in Tables 2 through 7 wherein, as indicated above, Ee is the expected effect from the additive response according to Limpel's formula expressed as percent inhibition and To is the percent inhibition observed. Synergy occurs when To values are higher than Ee values.

[2] = tested on: Trichophyton interdigitale; assay: as above; format: cell-based; conditions: for Expected inhibition: Ee, Limpel formula; for Synergy: Io-Ee
Method: as §1, §2, §3

Microsporum fulvum = assay: as above; format: cell-based; conditions: for Expected inhibition: Ee, Limpel formula; for Synergy: Io-Ee
Method: as §1, §2, §3

Cryptococcus gattii = assay: as above; format: cell-based; conditions: for Expected inhibition: Ee, Limpel formula; for Synergy: Io-Ee
Method: as §1, §2, §3

Candida albicans [3] = assay: Antifungal growth assay, defensin plus chemical fungicide; format: cell-based; set-up: key to Synergy: Io-Ee in % inhibition points; <15 none, 15-30 low, 30-60 medium, >60 high; conditions: permeabilizing defensin 1 μM + Caspofungin (2 ng/ml)
Method: Chemical fungicides were sourced commercially and were prepared as 10× stock solutions in H2O (caspofungin and fenpropimorph) or as a 100× stock in methanol (terbinafine).
as §1, §2, §3

plasma membrane = conditions: cited from earlier work
[4] = defensin 2 μM + BPTI (0.625 μM)
[5] = defensin 2 μM + HyCPI6 (2.5 μM)
[6] = defensin 2 μM + SlCys9N (2.5 μM)
[7] = defensin 1 μM + BPTI (0.625 μM)
[8] = defensin 1 μM + HvCPI6 (2.5 μM)
[9] = defensin 1 μM + SlCys9N (2.5 μM)
[10] = defensin 0.5 μM + BPTI (0.625 μM)
[11] = defensin 0.5 μM + HyCPI6 (0.625 μM)
[12] = defensin 0.5 μM + SlCys9N (5 μM)
[13] = defensin 2 μM + HvCPI6 (2.5 μM)

Substance: NaD1: Solanaceous Class II plant defensin from flowers of Nicotiana alata (Q8GTMO); permeabilizing defensin (RECKTESNTFPGICITKPPCRKACISEKFTDGHCSKILRRCLCTKPC; UniProt Q8GTM0 26-72, looked up)
- Observed inhibition (Candida albicans [1]; [4]): 94.1%
- Expected inhibition (Candida albicans [1]; [4]): 29.7%
- Synergy (Candida albicans [1]; [4]): 64.4
- Observed inhibition (Candida albicans [1]; [5]): 64.7%
- Expected inhibition (Candida albicans [1]; [5]): 0.0%
- Synergy (Candida albicans [1]; [5]): 64.7
- Observed inhibition (Candida albicans [1]; [6]): 94.8%
- Expected inhibition (Candida albicans [1]; [6]): 31.9%
- Synergy (Candida albicans [1]; [6]): 62.9
- Observed inhibition [2, 7]: 89.1%
- Expected inhibition [2, 7]: 57.9%
- Synergy [2, 7]: 31.2
- Observed inhibition [2, 8]: 71.6%
- Expected inhibition [2, 8]: 33.5%
- Synergy [2, 8]: 38.1
- Observed inhibition [2, 9]: 81.1%
- Expected inhibition [2, 9]: 28.1%
- Synergy [2, 9]: 53.0
- Observed inhibition (Microsporum fulvum; [10]): 52.9%
- Expected inhibition (Microsporum fulvum; [10]): 34.3%
- Synergy (Microsporum fulvum; [10]): 18.6
- Observed inhibition (Microsporum fulvum; [11]): 43.8%
- Expected inhibition (Microsporum fulvum; [11]): 19.0%
- Synergy (Microsporum fulvum; [11]): 24.8
- Observed inhibition (Microsporum fulvum; [12]): 79.9%
- Expected inhibition (Microsporum fulvum; [12]): 40.7%
- Synergy (Microsporum fulvum; [12]): 39.2
- Observed inhibition (Cryptococcus gattii; [4]): 95.6%
- Expected inhibition (Cryptococcus gattii; [4]): 22.0%
- Synergy (Cryptococcus gattii; [4]): 73.7
- Observed inhibition (Cryptococcus gattii; [13]): 96.2%
- Expected inhibition (Cryptococcus gattii; [13]): 32.1%
- Synergy (Cryptococcus gattii; [13]): 64.1
- Observed inhibition (Cryptococcus gattii; [6]): 98.8%
- Expected inhibition (Cryptococcus gattii; [6]): 0.0%
- Synergy (Cryptococcus gattii; [6]): 98.8
- Observed inhibition (Candida albicans [3]): 61.7%
- Expected inhibition (Candida albicans [3]; Ee, Limpel formula): 1.2%
- Synergy (Candida albicans [3]; Io-Ee): 60.5
- Membrane permeabilization (plasma membrane; at concentrations corresponding to the IC50): significant membrane permeabilization
- Membrane permeabilization (plasma membrane; at low concentrations that do not cause growth inhibition, van der Weerden et al. (2008)): some membrane permeabilization
- Time at which permeabilization begins (plasma membrane; van der Weerden et al. (2010)): ≤ 15 min
- Time at which permeabilization reaches its maximum (plasma membrane; van der Weerden et al. (2010)): 80 min
